Structures can show the parent of a compound that is named as a salt. Values belong to the compound of their own block, whether it stands above or below them.
Legend:
cyclooxygenase = biological target: T1, cyclooxygenase (Oryctolagus cuniculus, UniProt O97554); test: Effect on malondialdehyde (MDA) production in rabbit platelets; type: cell-based; settings: dose required to inhibit the production of malondialdehyde by 50%; washed rabbit PRP, arachidonic acid added; read-out: IC₅₀
T1 construct: Washed rabbit PRP (900 µl) was preincubated with drug solution; endogenous in cells; host or cells: washed rabbit platelets (PRP)
T1 sequence (O97554 31-606): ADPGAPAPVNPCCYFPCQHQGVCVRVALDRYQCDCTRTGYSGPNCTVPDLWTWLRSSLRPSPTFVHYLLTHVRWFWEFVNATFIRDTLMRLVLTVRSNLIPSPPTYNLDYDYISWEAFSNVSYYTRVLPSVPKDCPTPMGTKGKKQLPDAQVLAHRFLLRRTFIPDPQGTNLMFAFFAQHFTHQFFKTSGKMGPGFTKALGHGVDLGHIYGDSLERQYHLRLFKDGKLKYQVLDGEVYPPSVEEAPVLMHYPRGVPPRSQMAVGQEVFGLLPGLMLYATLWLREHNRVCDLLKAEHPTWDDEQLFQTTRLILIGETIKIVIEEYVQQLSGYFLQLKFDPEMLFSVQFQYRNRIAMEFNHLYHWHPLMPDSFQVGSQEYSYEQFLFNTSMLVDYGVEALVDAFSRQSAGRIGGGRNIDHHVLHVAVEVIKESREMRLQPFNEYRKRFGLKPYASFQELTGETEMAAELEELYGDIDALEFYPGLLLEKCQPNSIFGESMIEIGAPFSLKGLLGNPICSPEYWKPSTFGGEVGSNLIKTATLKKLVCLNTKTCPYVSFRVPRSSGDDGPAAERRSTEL
Procedure: Washed rabbit PRP (900 µl) was preincubated with drug solution (dissolved in dimethyl sulfoxide) (100 µl) at 37°C for 5 minutes. Then, 2.5 mM arachidonic acid solution (20 µl) was added to the reaction mixture. After 3 minutes, thiobarbiturate reagent (1000 µl) was added, and the reaction mixture was heated in a boiled water. After centrifugation at 1500 g for 10 minutes, the absorbance of suparnatant was measured at 532 nm. This test was carried out to see inhibitory activity of the test compound against the activity of cyclooxygenase. Activity of the test compound was expressed as IC₅₀ values i.e. doses required to inhibit the production of malondialdehyde by 50%.

PRP = test: Platelet aggregation ex vivo (arachidonic acid induced, PRP after oral dosing); type: in vivo; settings: Cavia porcellus, 6 h, Dose 1.0 mg/kg oral, blood collected six hours after administration, arachidonic acid final 50 µM as aggregation inducer, male Hartley guinea-pigs
Procedure: Male Hartley guinea-pigs weighing about 300 g were used after 24 hours fasting. Six hours after oral administration of the test compound or vehicle of test compound (control), blood was collected into a tube containing 0.1 vol. of 3.8% sodium citrate and prepared platelet rich plasma (PRP).
To the […] of PRP, 5 µl of arachidonic acid (final 50 µM) was added as an aggregation inducer. Aggregation was measured by using an aggregometer (NKK HEMA-TRACER 1).

isolated rat aorta = test: Relaxation effect on isolated rat aorta (KCl-induced contraction); settings: dose required to relax the isolated rat aorta by 50%; contraction induced by KCl 30 mM; maximum relaxation by 10⁻⁴M papaverine; read-out: ED₅₀
Procedure: Helical strip of rat thoracic aorta was suspended in the organ bath containing Tyrode solution gassed with 95% O₂ - 5% CO₂ at 37°C under 0.5 g load. Contraction was induced by addition of KCℓ solution (final concentration was 30 mM). […] Activities of the test compound were expressed as ED₅₀ values i.e. doses required to relax the isolated rat aorta by 50%.

human washed platelets = test: Thrombin induced aggregation in human washed platelets; type: cell-based; settings: Concentration 1.0 x 10⁻⁵ M; thrombin final conc. 0.3-0.5 U/ml
Procedure: Blood was drawn from healthy volunteers into a plastic tube containing 1/10 volume of 3.8% sodium citrate and centrifuged at 120 g for 10 minutes to obtain platelet rich plasma (PRP). An equal volume of 25 mM Tris-HCl buffer (pH 7.4) containing 130 mM NaCl and 1.5 mM EDTA (buffer A) was added to the PRP, mixed and centrifuged at 1500 g for 10 minutes. The platelet pellet was suspended in buffer A and centrifuged at 1500 g for 5 minutes. The platelets were resuspended in 25 mM Tris-HCl buffer (pH 7.4) containing 130 mM NaCl and 0.3 mM EDTA and recentrifuged at 1500 g for 5 minutes. The platelets were finally suspended in Tyrode solution containing 0.3 % bovine serum albumin and the platelet count was adjusted to 3 x 10⁸/ml. To 247.5 µl of platelet suspension, 2.5 µl of drug solution was added and incubated for 2 minutes at 37°C prior to addition of thrombin solution (final conc. 0.3-0.5 U/ml). Platelet aggregation was turbidometrically measured using a HEMA-TRACER 1.

IC50 (cyclooxygenase): 0.015 µM
SMILES: COc1ccc(-c2nc(CNC(C)=O)sc2-c2ccc(OC)cc2)cc1 [Example 1, 2-acetylaminomethyl-4,5-bis(4-methoxyphenyl)thiazole]

SMILES: COc1ccc(-c2nc(CNC(=O)C3=NNC(=O)CC3)sc2-c2ccc(OC)cc2)cc1 [Example 15, 4,5-bis(4-methoxyphenyl)-2-{(6-oxo-1,4,5,6-tetrahydropyridazin-3-yl)carbonyiaminomethyl}thiazole]
inhibition at 1 mg/kg (PRP): 100%
EC50 (isolated rat aorta): 7.3 µM

EC50 (isolated rat aorta): 8.2 µM
SMILES: COc1ccc(-c2nc(CNC(=O)c3cccnc3)sc2-c2ccc(OC)cc2)cc1 [Example 19, 4,5-bis(4-methoxyphenyl)-2-(nicotinoylaminomethyl)thiazole hydrochloride]

SMILES: CNC(=O)NCc1nc(-c2ccc(OC)cc2)c(-c2ccc(OC)cc2)s1 [Example 24, 4,5-Bis(4-methoxyphenyl)-2-(3-methylureidomethyl)thiazole]
Inhibition of the aggregation (%) (human washed platelets): 71.3%
